{
  "source": "patent US12054495B2",
  "about": "“Substituted macrocyclic compounds and related methods of treatment” (Alkermes, Inc., priority 2019, dated 2024)",
  "data": [
    {"target": "T1, human orexin-2 receptor (OX2R) (Homo sapiens, UniProt O43614)", "T1 construct": "expressed in transfected cells", "T1 sequence (O43614 1-444)": "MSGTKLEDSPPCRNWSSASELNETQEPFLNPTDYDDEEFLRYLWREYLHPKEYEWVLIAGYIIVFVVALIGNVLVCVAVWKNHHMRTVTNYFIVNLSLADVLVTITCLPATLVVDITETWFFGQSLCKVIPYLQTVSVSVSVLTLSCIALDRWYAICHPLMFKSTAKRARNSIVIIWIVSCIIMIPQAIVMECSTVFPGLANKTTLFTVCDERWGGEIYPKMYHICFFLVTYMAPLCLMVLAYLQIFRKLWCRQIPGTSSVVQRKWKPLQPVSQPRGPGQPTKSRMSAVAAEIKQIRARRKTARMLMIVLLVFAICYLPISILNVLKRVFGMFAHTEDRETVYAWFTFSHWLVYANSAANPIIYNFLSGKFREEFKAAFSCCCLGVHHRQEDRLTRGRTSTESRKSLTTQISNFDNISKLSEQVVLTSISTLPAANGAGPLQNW", "test": "Human OX2R IP1 assay", "assay_type": "cell-based", "settings": "T-Rex CHO cells stably overexpressing human OX2R, IP1 accumulation, 1 hr at 37 degrees C; mean EC50; ∧ = racemic mixture", "protocol": "T-Rex CHO cells stably overexpressing the human orexin-2 receptor (OX2R) were induced overnight with 1 μg/mL of doxycycline in a T225 flask. 24 hours post induction, cells were lifted with accutase and plated into a 384-well proxy plate at 30,000 cells/well. Cells were then treated with different test compounds in 1× stimulation buffer containing 10 mM Hepes, 1 mM CaCl2), 0.5 mM MgCl2, 4.2 mM KCl, 146 mM NaCl, 5.5 mM glucose, and 50 mM LiCl, pH 7.4, for 1 hr at 37 degrees C. Following incubation, the reaction was terminated by the addition of detection mix, which is composed of IP1-d2 and anti-IP1-cryptate diluted in lysis buffer as well as 1× stimulation buffer. The plates were allowed to incubate for 1 hour at room temperature and were then read in the EnVision® multimode plate reader, measuring inositol phosphate levels.\nCisbio IP1 is a cell-based functional assay quantifying the accumulation of inositol monophosphate (IP), a metabolite released as a result of orexin 2 receptor activation through the phospholipase C-Gq signaling pathway. This is a competitive immunoassay in which the IP1 produced by the cells upon receptor activation competes with the IP1 analog coupled to the d2 fluorophore (acceptor) for binding to an anti-IP1 monoclonal antibody labeled with Eu cryptate (donor). The measured HTRF-FRET based signal is inversely proportional to the IP1 concentration produced.\nThe EC50 values reported in Table 2 were obtained according to the human OX2R IP1 assay described above. Data are the mean EC50 values ±S.E.M. The compound methyl (2R,3S)-3-((methylsulfonyl)amino)-2-(((cis-4-phenylcyclohexyl)oxy)methyl)-piperidine-1-carboxylate is a reference compound which is disclosed in Example 5 of PCT publication no. WO2017/135306.", "units": {"EC50": "nM"}, "values": [
      {"smiles": "CS(=O)(=O)N[C@H]1CCN2C(=O)C(F)(F)Oc3c(F)cc(F)cc3[C@H]3CC[C@H](CC3)OC[C@@H]12", "note": "[Compound 54]", "EC50": "< 100"},
      {"smiles": "CS(=O)(=O)N[C@H]1CCCN2C(=O)COc3ccc(Cl)cc3[C@H]3CC[C@H](CC3)OC[C@@H]12", "note": "[Compound 51]", "EC50": "< 100"},
      {"smiles": "CS(=O)(=O)N[C@H]1CCN2C(=O)C(F)(F)Oc3ccccc3[C@H]3CC[C@H](CC3)OC[C@@H]12", "note": "[Compound 53]", "EC50": "< 100"},
      {"smiles": "CS(=O)(=O)N[C@H]1CCCN2C(=O)C(F)(F)Oc3c(F)cc(F)cc3[C@H]3CC[C@H](CC3)OC[C@@H]12", "note": "[Compound 52]", "EC50": "< 100"},
      {"smiles": "CS(=O)(=O)N[C@H]1CCN2C(=O)COc3ccccc3[C@H]3CC[C@H](CC3)OC[C@@H]12", "note": "[Compound 7]", "EC50": "< 100"},
      {"smiles": "CS(=O)(=O)N[C@H]1CCCN2CCOc3ncccc3[C@H]3CC[C@H](CC3)OC[C@@H]12", "note": "[Compound 65]", "EC50": "100 to 1000"},
      {"smiles": "CS(=O)(=O)N[C@H]1CCCN2CCOc3ccccc3[C@H]3CC[C@H](CC3)OC[C@@H]12", "note": "[Compound 6]", "EC50": "< 100"},
      {"smiles": "CS(=O)(=O)N[C@H]1CCCN2CC(F)(F)Oc3ccccc3[C@H]3CC[C@H](CC3)OC[C@@H]12", "note": "[Compound 41]", "EC50": "> 1000"},
      {"smiles": "CC1(C)Oc2ccccc2[C@H]2CC[C@H](CC2)OC[C@H]2[C@@H](NS(C)(=O)=O)CCCN2C1=O", "note": "[Compound 36]", "EC50": "< 100"},
      {"smiles": "CC1(C)CN2CCC[C@H](NS(C)(=O)=O)[C@@H]2CO[C@H]2CC[C@H](CC2)c2ccccc2O1", "note": "[Compound 44]", "EC50": "100 to 1000"},
      {"smiles": "CS(=O)(=O)N[C@H]1CCCN2C(=O)COc3c(F)cc(F)cc3[C@H]3CC[C@H](CC3)OC[C@@H]12", "note": "[Compound 12]", "EC50": "< 100"},
      {"smiles": "CS(=O)(=O)N[C@H]1CCN2C(=O)COc3ncccc3[C@H]3CC[C@H](CC3)OC[C@@H]12", "note": "[Compound 18]", "EC50": "100 to 1000"},
      {"smiles": "CS(=O)(=O)N[C@H]1CCCN2C(=O)COc3nnccc3[C@H]3CC[C@H](CC3)OC[C@@H]12", "note": "[Compound 56]", "EC50": "100 to 1000"},
      {"smiles": "CS(=O)(=O)N[C@H]1CCCN2C(=O)COc3ncc(F)cc3[C@H]3CC[C@H](CC3)OC[C@@H]12", "note": "[Compound 64]", "EC50": "< 100"},
      {"smiles": "CS(=O)(=O)N[C@H]1CCN2C(=O)COc3c(F)cc(F)cc3[C@H]3CC[C@H](CC3)OC[C@@H]12", "note": "[Compound 43]", "EC50": "< 100"},
      {"smiles": "CS(=O)(=O)N[C@H]1CCCN2C(=O)CCOc3ccccc3[C@H]3CC[C@H](CC3)OC[C@@H]12", "note": "[Compound 1]", "EC50": "< 100"},
      {"smiles": "CS(=O)(=O)N[C@H]1CCCN2C(=O)CCCCOc3ccccc3[C@H]3CC[C@H](CC3)OC[C@@H]12", "note": "[Compound 3]", "EC50": "> 1000"},
      {"smiles": "CS(=O)(=O)N[C@H]1CCCN2C(=O)COc3nccnc3[C@H]3CC[C@H](CC3)OC[C@@H]12", "note": "[Compound 55]", "EC50": "< 100"},
      {"smiles": "CS(=O)(=O)N[C@H]1CCCN2C(=O)COc3ccc(Br)cc3[C@H]3CC[C@H](CC3)OC[C@@H]12", "note": "[Compound 57]", "EC50": "< 100"},
      {"smiles": "CS(=O)(=O)N[C@H]1CCCN2CC(F)(F)Oc3c(F)cc(F)cc3[C@H]3CC[C@H](CC3)OC[C@@H]12", "note": "[Compound 59]", "EC50": "100 to 1000"},
      {"smiles": "CS(=O)(=O)N[C@H]1CCCN2CCOc3c(F)cccc3[C@H]3CC[C@H](CC3)OC[C@@H]12", "note": "[Compound 13]", "EC50": "100 to 1000"},
      {"smiles": "CS(=O)(=O)N[C@H]1CCN2C(=O)COc3c(F)cccc3[C@H]3CC[C@H](CC3)OC[C@@H]12", "note": "[Compound 42]", "EC50": "< 100"},
      {"smiles": "CS(=O)(=O)N[C@H]1CCCN2CCCOc3ccccc3[C@H]3CC[C@H](CC3)OC[C@@H]12", "note": "[Compound 5]", "EC50": "> 1000"},
      {"smiles": "CS(=O)(=O)N[C@H]1CCCN2C(=O)COc3c(F)cccc3[C@H]3CC[C@H](CC3)OC[C@@H]12", "note": "[Compound 11]", "EC50": "< 100"},
      {"smiles": "CS(=O)(=O)N[C@H]1CCCN2C(=O)CCCOc3ccccc3[C@H]3CC[C@H](CC3)OC[C@@H]12", "note": "[Compound 4]", "EC50": "< 100"},
      {"smiles": "CS(=O)(=O)N[C@H]1CCCN2C(=O)C(F)(F)Oc3ccccc3[C@H]3CC[C@H](CC3)OC[C@@H]12", "note": "[Compound 40]", "EC50": "< 100"},
      {"smiles": "CS(=O)(=O)N[C@H]1CCN2CCOc3ccccc3[C@H]3CC[C@H](CC3)OC[C@@H]12", "note": "[Compound 39]", "EC50": "> 1000"},
      {"smiles": "CS(=O)(=O)N[C@H]1CCCN2C(=O)COc3ncccc3[C@H]3CC[C@H](CC3)OC[C@@H]12", "note": "[Compound 46]", "EC50": "< 100"},
      {"smiles": "CS(=O)(=O)N[C@H]1CCCN2CCOc3c(F)cc(F)cc3[C@H]3CC[C@H](CC3)OC[C@@H]12", "note": "[Compound 58]", "EC50": "100 to 1000"},
      {"smiles": "CS(=O)(=O)N[C@H]1CCCN2CCOc3ccc(Cl)cc3[C@H]3CC[C@H](CC3)OC[C@@H]12", "note": "[Compound 61]", "EC50": "> 1000"},
      {"smiles": "CS(=O)(=O)N[C@H]1CCCN2C(=O)CCc3ccccc3[C@H]3CC[C@H](CC3)OC[C@@H]12", "note": "[Compound 10]", "EC50": "100 to 1000"},
      {"smiles": "CS(=O)(=O)N[C@H]1CCCN2C(=O)COc3ccccc3[C@H]3CC[C@H](CC3)OC[C@@H]12", "note": "[Compound 2]", "EC50": "< 100"}
    ]},
    {"test_system": "not listed separately", "test": "Hepatocytes stability assay (human hepatocytes)", "assay_type": "in vitro ADME", "settings": "both sexes, cryopreserved hepatocytes, 1 μM test compound, 1×10^6 cell/mL, 37 degrees C, read-out: CLint (μL/min/million cells)", "protocol": "(§1) In vitro metabolic stability was assessed using cryopreserved hepatocytes from male Sprague Dawley rats and a pool of 50 mixed gender humans (BioIVT, Baltimore, MD). The incubation mixtures were prepared by mixing 250 μL of pre-warmed KHB (Krebs-Henseleit buffer) containing 2×10^6 cell/mL of hepatocytes with 250 μL of pre-warmed KHB buffer containing 2 μM of test compounds in a 48-well plate, giving a final concentration of 1 μM test compound (0.1% DMSO) and 1×10^6 cell/mL of hepatocytes. The reaction mixture was incubated at 37 degrees C. A 50 μL aliquot of incubation mixture was taken at time points (0, 15, 30, 60, 120 and 240 minutes) and transferred into a 96-well plate containing 300 μL ice-cold acetonitrile (containing 30 ng/mL of labetalol and 10 ng/mL of Naltrexone-d3 as internal standards) and immediately placed in ice to terminate the reaction. Samples were centrifuged, and supernatants were transferred into 96-well plates for liquid chromatography with tandem mass spectrometry (LC-MS/MS) analysis to monitor the depletion of the test compound.\n(§2) Data was calculated as percent remaining by assuming zero-minute time point peak area ratio (analyte/IS) as 100% and dividing remaining time point peak area ratios by zero-minute time point peak area ratio. Data were fitted to a first-order decay model to determine half-life. From a plot of log (ln) peak area against time, the slope of the line was determined. Subsequently, half-life (T1/2) and intrinsic clearance (CLint) were calculated using the equations below: Elimination rate constant (k)=(−slope) Half-life (T1/2)min=0.693/k Intrinsic Clearance (CLint) (mL/min/million cells)=(V×0.693)/T1/2 V=incubation volume mL/number of cells The in vitro T1/2 was converted to in vitro intrinsic clearance (CLint,hep) in units of mL/min/kg using the formula shown below:\n(§3) [formula] The in vitro intrinsic clearance (CLint,hep) was scaled to in vivo hepatic clearance (CL,hep) using the following equation which was adapted from a well-stirred model.\n(§4) [formula] where Q is the liver blood flow and fu is the fraction unbound (assumed to be unity in this case). All parameters used in the calculation are shown below (Table 4).\n(§5) The extraction ratio (ER) was calculated by dividing the hepatic clearance of a compound to the liver blood flow. The data reported in Table 5 were obtained according to the human hepatocytes stability assay described above.", "units": {"hepatocyte CLint at 1 μM": "µL/min/1e6 cells"}, "values": [
      {"smiles": "CS(=O)(=O)N[C@H]1CCCN2CCCOc3ccccc3C3CCC(CC3)OCC12", "note": "(stereo partly drawn) [Compound 5]", "hepatocyte CLint at 1 μM": 63},
      {"smiles": "CS(=O)(=O)N[C@H]1CCCN2CC(F)(F)Oc3ccccc3C3CCC(CC3)OCC12", "note": "(stereo partly drawn) [Compound 41]", "hepatocyte CLint at 1 μM": 60}
    ]},
    {"test_system": "human hepatocytes", "test": "Hepatocytes stability assay (human hepatocytes)", "assay_type": "in vitro ADME", "settings": "scaled hepatic clearance divided by liver blood flow, fu assumed unity", "protocol": "as §1, §2, §3, §4, §5", "values": [
      {"smiles": "CS(=O)(=O)N[C@H]1CCCN2CCCOc3ccccc3C3CCC(CC3)OCC12", "note": "(stereo partly drawn) [Compound 5]", "Extraction Ratio (ER)": 0.90},
      {"smiles": "CS(=O)(=O)N[C@H]1CCCN2CC(F)(F)Oc3ccccc3C3CCC(CC3)OCC12", "note": "(stereo partly drawn) [Compound 41]", "Extraction Ratio (ER)": 0.90}
    ]}
  ]
}
